Values after ≈ are worked out from the molar mass of the structure shown.
Experiments:
Assay type in all cases: functional, cell-based
SK-BR-3 = assay: Cytotoxicity against human SK-BR-3 cells incubated for 144 hrs by CellTiter-Glo luminescent assay; details: SK-BR-3, 144 h
T47D = assay: Cytotoxicity against human T47D cells
[1] = Cytotoxicity against human KPL-4 cells assessed as inhibition of cell growth incubated for 3 days by CellTiter-Glo luminescent assay; details: KPL4, 72 h

Cc1cccc2c(O)cc3c(c12)[C@H](CCl)CN3C(=O)c1cn2cc(NC(=O)c3ccc(O)cc3)ccc2n1
IC50 (SK-BR-3): 0.09 nM

CC[C@H](C)[C@@H]1NC(=O)CNC(=O)[C@H]2CC(=O)[C@H]([C@@H](C)[C@@H](O)CO)NC(=O)[C@@H]3C[C@@H](O)CN3C(=O)[C@H](CC(=O)O)NC(=O)[C@H](C[S+]([O-])c3[nH]c4cc(O)ccc4c3C2)NC(=O)CNC1=O (stereo partly drawn)
IC50 (T47D): ~500 nM

C=C1C[C@H]2C=Nc3cc(OCCCCCOc4cc5c(cc4OC)C(=O)N4CC(=C)C[C@H]4C(O)N5C(=O)OCc4ccc(SSC(C)(C)C)cc4)c(OC)cc3C(=O)N2C1 (stereo partly drawn)
IC50 [1]: 6.3 ng/mL (≈ 7.35 nM)
